Experiments:
[1] = Miscibility of toluene with HFP and HFPO; format: physicochemical; settings: in toluene; miscibility sharply affected by temperature
Text: Certain organic liquids show more affinity for perfluoroolefins than for their epoxides and they are desired for use in this invention. […] With mixtures of HFP and HFPO as would exist in a continuous back-mixed reactor, immiscibility exists at higher temperatures. It is believed that organic liquids which are substantially halogenated will not form two phases with HFP or HFPO. […] Therefore, a hydrogen-containing organic liquid is used.

[2] = Determination of the HFP-HFPO partition coefficient (alpha) in an organic liquid: HFP/HFPO gas mixture passed through the liquid, dissolved gases measured by gas chromatography; format: physicochemical; settings: HFP-HFPO partition coefficient of the organic liquid, atmospheric pressure
Procedure: A simple method of determining this preference (using HFP over HFPO as an example of other olefins and their epoxides covered by this invention) is to determine the partition coefficient for the system HFPO-HFP-organic liquid. Determination of the partition coefficient (alpha) is carried out by passing a mixture of HFP and HFPO gas through the organic liquid at atmospheric pressure while agitating vigorously and maintaining a constant temperature. The gas is passed through the liquid long enough to ensure that the liquid is completely saturated with the gases and to let the gas phase composition equilibrate to the feed composition. The organic liquid phase is then sampled and gas chromatography is used to determine the amount of the gaseous components which had been dissolved in the liquid phase. The partition coefficient, alpha, is then calculated by the following equation: [formula]
Using this method, partition coefficients were determined for a number of organic liquids at -15°C and 0°C, with the results shown below: […]

Row | Compound | concentration at which toluene becomes immiscible [1] | Alpha at 0°C [2] | Alpha at -15°C [2]
1 | FC(F)(F)C1(F)OC1(F)F (centres unmarked) [HFPO, hexafluoropropylene epoxide] | 3-6 wt % |  | 
2 | CCCCCCCCCC [n-decane] |  | 1.3 | 1.6
3 | FC(F)=C(F)C(F)(F)F [HFP, hexafluoropropylene] | 20-40 wt % |  | 
4 | Cc1cc(C)cc(C)c1 [mesitylene] |  | 2.2 | 2.3
5 | FC(F)(F)C(F)(F)C(F)(F)C(F)(F)C1(F)OC(F)(F)C(F)(F)C1(F)F (centres unmarked) [FC-75, Perfluoro(butyl tetrahydrofurane)] |  | 1.0 | 1.0
6 | dichlorobenzene |  | 2.1 | 2.0
7 | COc1ccccc1 [anisole] |  | 2.5 | 2.4
8 | Clc1ccccc1 [chlorobenzene] |  | 2.1 | 1.9
